Columns and labels:
[1] = Stability of Compound I in solubilised composition; type: physicochemical
Excerpt: Example 15: Stability of Compound I in Solubilised Composition
Example 16: Stability of Compound I in Solubilised Composition
Example 17: Stability of Compound I in Solubilised Composition

[2] = Pharmacokinetics after single intramuscular administration in female SD rats (Example 18); type: in vivo; details: Sprague-Dawley, rat, plasma, im, 59 mg/kg, Compound I 100 mg/mL, mean ± SD; for AUC(0-t): read-out: AUClast of Compound I in plasma
Method: The objective of the study was to evaluate single site Vs. two site IM injection of compound I and it impact on pharmacokinetic exposure in female rats. Study was performed in female SD rats with n=6 animals per group. Faslodex 52 mg/kg (human equivalent dose) was administrated at two IM sites by dividing dose volume to half. In similar manner, 59 mg/kg (100 mg/mL compound I concentration) (52 mg/kg Fulvestrant equivalent) was administered as single injection (one IM site) or two IM injection by dividing dose volume in half. […] At each time point, −0.3 mL blood was collected in tubes containing Li-heparin as anti-coagulant. For plasma separation, blood was centrifuges at 5000 rpm for 10 minutes at 4° C. and collected plasma was stored at −80° C. until further analysis.
Bioanalysis in plasma samples was performed using fit-for-purpose LC-MS/MS method for the quantification Fulvestrant and Compound I. Linearity range for Fulvestrant and Compound I analytes were 2 to 2000 ng/mL. The bioanalytical summary for Fulvestrant concentration in all three groups is shown in table 1 and graphical representation is shown in FIG. 1 Concentration of Compound I is shown in table 2 and graphical representation is shown in FIG. 2. The plasma pharmacokinetic parameters for Fulvestrant and Compound I were calculated using standard non-compartmental analysis (Phoenix® software, version 8.1, Pharsight Corporation, Mountain View, California 94040/USA) linear trapezoidal method with linear interpolation.

[3] = Pharmacokinetics after single intramuscular administration in female Beagle dogs (Example 19); type: in vivo; details: 17 mg/kg IM, mean ± SD; for Cmax / Tmax / AUC(0-inf) / AUC(0-t): female, beagle, dog, plasma, im, 17 mg/kg; for AUC(0-inf): read-out: AUCinf—obs of Compound I in plasma; for AUC(0-t): read-out: AUClast of Compound I in plasma
Method: A total of 9 female Beagle dogs were used in this study. The study was performed as a parallel design study.
(§1) All dogs were administered intramuscularly at the gluteal region.
(§2) Dose volume was equally divided and administered to two IM sites.
At each time point, −0.5 mL of blood was withdrawn and transferred into a pre-labelled K2EDTA coated vacutainer tubes and mixed gently by inverting the tube to facilitate mixing of anticoagulant with the blood. Blood samples were kept on gel packs until centrifugation. The collected blood samples were centrifuged at 5000 rpm for 5 min at 4° C. Plasma was separated after centrifugation. All plasma samples were transferred into pre-labeled (Animal ID No., Time point, Study No., and Group) tubes and stored at −70±10° C. until analysis.
Bioanalysis in plasma samples was performed using fit-for-purpose LC-MS/MS method for the quantification of—Group 1—Fulvestrant • Group 2—Fulvestrant and Compound I • Group 3—Fulvestrant and Compound I
Linearity range for Fulvestrant and Compound I analytes were 1 to 1000 ng/mL. The bioanalytical summary for Fulvestrant concentration in all three groups is shown in table 4 and graphical representation is shown in FIG. 3 Concentration of pro-drug Compound I is shown in table 5 and graphical representation is shown in FIG. 4. The plasma pharmacokinetic parameters for Fulvestrant and Compound I were calculated using standard non-compartmental analysis (Phoenix® software, version 8.3, Pharsight Corporation, Mountain View, California 94040/USA) linear trapezoidal method with linear interpolation. Ratio of fulvestrant obtained after dosing Compound I to that of Faslodex was calculated for parameters Cmax and AUC is reported in Table 6(A) and Table 6(B).

[4] = Pharmacokinetic study in female Beagle dog, 169.5 mg/mL composition (Example 24); type: in vivo; details: female Beagle dogs, Compound I 169.5 mg/mL, 17 mg/kg IM, two sites
Method: A total of 2 female beagle dogs were used in this study.
as §1, §2
At each time point, −0.5 mL of blood was withdrawn and transferred into a pre-labeled K2EDTA coated vacutainer tubes and mixed gently by inverting the tube to facilitate mixing of anticoagulant with the blood. Blood samples were kept on gel packs until centrifugation. The collected blood samples were centrifuged at 5000 rpm for 5 min at 4° C. Plasma was separated after centrifugation. All plasma samples were transferred into pre-labeled (Animal ID No., Time point, Study No., and Group) tubes and stored at −70±10° C. until analysis.
Bioanalysis of plasma samples was performed using fit-for-purpose LC-MS/MS method for the quantification of fulvestrant and Compound I.
Linearity range for Fulvestrant and Compound I analytes were 1 to 1000 ng/mL. The plasmapharmacokinetic parameters for Fulvestrant and Compound I were calculated using standard non-compartmental analysis (Phoenix® software, version 8.3, Pharsight Corporation, Mountain View, California 94040/USA) linear trapezoidal method with linear interpolation.

in vivo = details: male, cynomolgus monkey, im, 28.3 mg/kg
Method: (§3) Procedure: In this single-dose pharmacokinetics study, four Non-Naïve male Cyno monkeys (Age—2.5-6 years, Weight 2-5 kg) were randomly assigned into two groups to evaluate the pharmacokinetics of Faslodex (1 animal) Vs. Compound I (3 animals) following single intramuscular (IM) administration. The test articles were monitored in plasma for up to 336 h (14 days) following dosing. Faslodex at dose of 25 mg/kg (50 mg/mL fulvestrant strength, 500 mg human equivalent dose) was intramuscularly administrated into monkey at study Day 0. The dosage volume 0.5 mL/kg was equally divided and administered at two sites. Compound I at dose 28.3 mg/kg (25 mg/kg Fulvestrant equivalent) having strength 169.5 mg/mL (150 mg/mL fulvestrant equivalent) was intramuscularly administrated into monkeys at study Day 0. The dosage volume of 0.15 mL/kg was administered on one IM site. Blood samples were collected through cephalic or saphenous vein at 0 (Pre-dose), 0.25, 1, 2, 4, 8, 12, 24, 48, 72, 96, 120, 144, 168, 192, 216, 240, 264, 288, 312, and 336 hours. Plasma concentrations of Compound I and fulvestrant were determined using LC/MS/MS to construct semi-logarithmic plasma concentration-time curves. Pharmacokinetic analysis was performed using non-compartmental model.

[5] = Pharmacokinetic study in male cynomolgus monkey (Example 25); details: male cynomolgus monkeys; Compound I 28.3 mg/kg IM, 169.5 mg/mL, one site
Method: as §3

[6] = composition with 113 mg/ml compound I, Initial
[7] = composition with 113 mg/ml compound I, Room Temp (45 Days)
[8] = composition with 169.5 mg/ml compound I, Initial
[9] = composition with 169.5 mg/ml compound I, Room Temp (30 Days)
[10] = composition with 226 mg/ml compound I, Initial
[11] = composition with 226 mg/ml compound I, Room Temp (30 Days)

C[C@]12CC[C@@H]3c4ccc(OP(=O)(O)O)cc4C[C@@H](CCC[S+]([O-])CCCC(F)(F)C(F)(F)F)[C@H]3[C@@H]1CC[C@@H]2O (stereo partly shown) [Compound I]
Description ([1]; composition with 113 mg/ml compound I (equivalent to 100 mg/ml Fulvestrant), Initial): Clear colorless to light | Assay of compound I(%) [1, 6]: 104.0% | Visual Inspection [1, 6]: Clear solution, No | Assay of compound I(%) [1, 7]: 103.3% | Description [1, 7]: Clear colorless to light | Visual Inspection [1, 7]: Clear solution, No | Description ([1]; composition with 169.5 mg/ml compound I (equivalent to 150 mg/ml Fulvestrant), Initial): Clear colorless to light | Assay of compound I(%) [1, 8]: 100.4% | Visual Inspection [1, 8]: Clear solution, No | Assay of compound I(%) [1, 9]: 95.30% | Description [1, 9]: Clear colorless to light | Visual Inspection [1, 9]: Clear solution, No | Assay of compound I(%) [1, 10]: 101.8% | Visual Inspection [1, 10]: Clear solution, No | Assay of compound I(%) [1, 11]: 98% | Description [1, 11]: Clear colorless to light | Visual Inspection [1, 11]: Clear solution, No | Cmax ([2]; IM single site): 969 ± 349 ng/mL | Tmax ([2]; IM single site): 3.17 ± 2.56 h | AUC(0-t) ([2]; IM single site): 12400 ± 3430 ng·h/mL | Cmax ([2]; IM two sites): 1150 ± 500 ng/mL | Tmax ([2]; IM two sites): 1.83 ± 0.41 h | AUC(0-t) ([2]; IM two sites): 12800 ± 3120 ng·h/mL | AUC% exp. pol of Compound I ([3]; Compound I 50 mg/mL): 0.967 ± 0.255% | AUC% exp. pol of Compound I ([3]; Compound I 100 mg/mL): 0.974 ± 0.886% | Cmax ([3]; Compound I 50 mg/mL): 624 ± 274 ng/mL | Tmax ([3]; Compound I 50 mg/mL): 0.83 ± 1.01 h | AUC(0-inf) ([3]; Compound I 50 mg/mL): 4260 ± 1060 ng·h/mL | AUC(0-t) ([3]; Compound I 50 mg/mL): 4220 ± 1060 ng·h/mL | Cmax ([3]; Compound I 100 mg/mL): 272 ± 183 ng/mL | Tmax ([3]; Compound I 100 mg/mL): 1.83 ± 1.89 h | AUC(0-inf) ([3]; Compound I 100 mg/mL): 4360 ± 1390 ng·h/mL | AUC(0-t) ([3]; Compound I 100 mg/mL): 4320 ± 1410 ng·h/mL | Tmax ([4]; dog, plasma): 8 h | Cmax ([4]; dog, plasma, mean ± SD): 322 ± 14.1 ng/mL | AUC(0-inf) ([4]; dog, plasma, mean ± SD, read-out: AUCinf—obs of Compound I in plasma): 5540 ± 1880 ng·h/mL | AUC(0-t) ([4]; dog, plasma, mean ± SD, read-out: AUClast of Compound I in plasma): 5510 ± 1880 ng·h/mL | AUC% exp. pol of Compound I ([4]; mean ± SD): 0.578 ± 0.303% | AUC(0-t) (in vivo): 17500 ng·h/mL | C_max (Compound I in plasma) [5]: 1081 ng/mL | T_max (Compound I in plasma) [5]: 3.42 h | T_½ (Compound I in plasma) [5]: 12.79 h | Tlast (Compound I in plasma) [5]: 152.00 h

— patent publication US20260124221A1, “INJECTABLE PHARMACEUTICAL COMPOSITION FOR TREATMENT OF BREAST CANCER” (KASHIV BIOSCIENCES, LLC, priority 2021, published 2026)
